The text below walks through data of PMC6563033, “Purification and Characterization of Antioxidant Peptides Derived from Protein Hydrolysate of the Marine Bivalve Mollusk Tergillarca granosa” (Marine Drugs, 2019).

Marks after values point to notes of the source that are not given here. Residues, ends and D or L forms follow the SMILES beside them. No end group written: not given here.

Data set [1] in a line: Simulated GI digestion (pepsin + pancreatin), read out as hydroxyl radical scavenging EC50. In kind it is in vitro ADME. Conditions: two-stage digestion: pepsin 1.0 h + pancreatin 2.0 h; judged from hydroxyl radical EC50. On the procedure: (§1) First, 1.0 mL of a 1.87 mM 1,10-phenanthroline solution and 2.0 mL of the sample were added to a screw-capped tube and mixed. Then, 1.0 mL of a FeSO4·7H2O solution (1.87 mM) was added to the mixture. The reaction was initiated by adding 1.0 mL of H2O2 (0.03%, v/v). After being incubated at 37 °C for 60 min in a water bath, the absorbance of the reaction mixture was measured at 536 nm against a reagent blank. The reaction mixture without any antioxidant was used as the negative control, and a mixture without H2O2 was used as the blank. The hydroxyl radical scavenging activity was calculated using the following formula: Hydroxyl radical scavenging activity (%) = [(As − An)/(Ab − An)] × 100% (3) where As, An, and Ab are the absorbance values determined at 536 nm of the sample, the negative control, and the blank after the reaction, respectively.
Stability of TGP3 and TGP4 were measured according to the previous method with minor modifications. A temperature-controlled water bath at 25, 37, 60, 80, or 100 °C for 0.5 h was used to measure thermostability of TGP3 and TGP4. Effects of pH treatments (pH 3, 5, 7, 9, or 11) of sample solutions incubated at 25 °C for 2.5 h were assessed to analyze the pH stability of TGP3 and TGP4. […] Hydroxyl radical scavenging activities (EC50 value) of the treated TGP3 and TGP4 were measured according to the previous methods.

A short description of data set [2]: Hydroxyl radical scavenging activity (1,10-phenanthroline/FeSO4/H2O2). In kind it is biochemical. The conditions noted are these: isolated APs; 37 °C, 60 min, absorbance 536 nm; mean ± SD, n = 3. As to the method: (§2) The DPPH radical, hydroxyl radical, superoxide anion radical, and ABTS cation radical scavenging activities were measured according to the previous methods. The results were expressed as a half elimination ratio (EC50) defined as the concentration by which a sample caused a 50% decrease of the initial concentration of DPPH radical, hydroxyl radical, superoxide anion radical, and ABTS cation radical, respectively, and the calculation method of EC50 was according to linear relationship of radical scavenging rates and concentrations of samples [6, 26].
as §1, with “The reaction mixture without any antioxidant was used as the negative control, and a mixture without H2O2 was used as the blank.” left out

Data set [3] can be described thus: DPPH radical scavenging activity. In kind it is biochemical. Conditions: isolated APs; 0.02% ethanolic DPPH; EC50 from linear relation of scavenging rate and concentration; mean ± SD, n = 3. As to the method:
as §2
Two millilitres of samples consisting of DW and different concentrations of the analytes were placed in cuvettes, and 500 μL of an ethanolic solution of DPPH (0.02%) and 1.0 mL of ethanol were added. A control sample containing the DPPH solution without the sample was also prepared. In the blank, the DPPH solution was substituted with ethanol. The antioxidant activity of the sample was evaluated using the inhibition percentage of the DPPH radical with the following equation: DPPH radical scavenging activity (%) = (A0 + Ab − A)/A0 × 100% (2) where A is the absorbance rate of the sample, A0 is the control group absorbance, and Ab is the blank absorbance.
A general note: DPPH is a stable violet radical that fades when it is reduced.

The nature of data set [4]: Superoxide anion radical scavenging activity (NBT/NADH/PMS). In kind it is biochemical. Conditions: isolated APs; 25 °C, 5 min, absorbance 560 nm; mean ± SD, n = 3. On the procedure: as §2
The superoxide anions were generated in 1 mL of nitrotetrazolium blue chloride (2.52 mM), 1 mL of nicotinamide adenine dinucleotide hydride (NADH) ([…]) and 1 mL of different sample concentrations. The reaction was initiated by adding 1 ml of phenazine methosulphate solution (120 μM) to the reaction mixture. The absorbance was measured at 560 nm against the corresponding blank after 5 min incubation at 25 °C. The superoxide anion radical scavenging capacity was calculated using the following equation: Superoxide anion radical scavenging activity (%) = [(Acontrol − Asample)/Acontrol] × 100% (4) where Acontrol is the absorbance without sample and Asample is the absorbance with sample.

Data set [5] is described as follows: ABTS cation radical scavenging activity. In kind it is biochemical. Conditions: isolated APs; 5 mM PBS pH 7.4, 10 min, absorbance 734 nm; mean ± SD, n = 3. On the procedure:
as §2
The ABTS radical cation was generated by mixing ABTS stock solution (7 mM) with potassium persulphate (2.45 mM). The mixture was left in the dark at room temperature for 16 h. The ABTS radical solution was diluted in 5 mM PBS pH 7.4, to an absorbance of 0.70 ± 0.02 at 734 nm. One milliliter of diluted ABTS radical solution was mixed with one milliliter of different concentrations of samples. 10 min later, the absorbance was measured at 734 nm against the corresponding blank. The ABTS scavenging activity of samples was calculated using the following equation: ABTS scavenging activity (%) = [(Acontrol − Asample)/Acontrol] × 100% (5) where Acontrol is the absorbance without sample and Asample is the absorbance with sample.

Turning to MDLFTE [TGP-3, Met-Asp-Leu-Phe-Thr-Glu], the “Susceptibility to GI digestive enzymes” value in data set [1] is “partially susceptible to be degradated by GI digestive enzymes”.
Take “WIDPDG [TGP-2, antioxidant peptide from blood cockle (T. granosa) protein hydrolysate]”: the “Half Elimination Ratio (EC50) Hydroxyl Radical” value in data set [2] was 1.54 ± 0.11 ^b mg/mL. The “Half Elimination Ratio (EC50) DPPH Radical” value in data set [3] is listed as 1.82 ± 0.16 ^c mg/mL. Further, the “Half Elimination Ratio (EC50) Superoxide Anion Radical” value in data set [4] was 2.49 ± 0.17 ^b mg/mL. In addition, the “Half Elimination Ratio (EC50) ABTS Cation Radical” value in data set [5] is given as 2.56 ± 0.23 ^b mg/mL.
On to `N[C@@H](Cc1c[nH]c2ccccc12)C(=O)N1CCC[C@H]1C(=O)N1CCC[C@H]1C(=O)N[C@@H](CC(=O)O)C(=O)O` [TGP-4, Trp-Pro-Pro-Asp] (H-WPPD-OH), for which the “Susceptibility to GI digestive enzymes” value in data set [1] is recorded as “partially susceptible to be degradated by GI digestive enzymes”.
